# Source: patent publication US7384734B2, “Compositions and methods for determining the susceptibility of a pathogenic virus to protease inhibitors” (Monogram Biosciences, Inc., priority 2002, dated 2008)
# Tested on: HIV-1 from patient plasma samples
# Test: PHENOSENSE HIV phenotypic drug susceptibility assay (fold change in IC50 versus NL4-3 reference strain)
# Assay type: cell-based
# Source text: A “fold change” is a numeric comparison of the drug susceptibility of a patient virus and a drug-sensitive reference virus. It is the ratio of the Patient IC50 to the drug-sensitive reference IC50, i.e., Patient IC50/Reference IC50=Fold Change (“FC”). […] A fold change less than 1 indicates the patient virus is more sensitive than the drug-sensitive reference virus. […] A fold change less than the clinical cutoff value means the patient virus is sensitive to that drug.
# In one embodiment, the phenotypic analysis is performed using PHENOSENSE™ (ViroLogic Inc., South San Francisco, Calif.). See Petropoulos et al., 2000, Antimicrob. Agents Chemother. 44:920-928; U.S. Pat. Nos. 5,837,464 and 6,242,187. PHENOSENSE™ is a phenotypic assay that achieves the benefits of phenotypic testing and overcomes the drawbacks of previous assays.
# A resistance test vector (“RTV”) can then be constructed by incorporating the amplified viral gene sequences into a replication defective viral vector by using any method known in the art of incorporating gene sequences into a vector. In one embodiment, restrictions enzymes and conventional cloning methods are used. See Maniatis et al., 1989, Molecular Cloning: A Laboratory Manual, Cold Spring Harbor Laboratory, N.Y. and Ausubel et al., 1989, Current Protocols in Molecular Biology, Greene Publishing Associates and Wiley Interscience, N.Y. In some embodiments, ApaI and PinAI restriction enzymes are used. Preferably, the replication defective viral vector is the indicator gene viral vector (“IGVV”). In some embodiments, the viral vector contains a means for detecting replication of the RTV. Preferably, the viral vector contains a luciferase expression cassette.
# The assay can be performed by first co-transfecting host cells with RTV DNA and a plasmid that expresses the envelope proteins of another retrovirus, for example, amphotropic murine leukemia virus (MLV). Following transfection, virus particles can be harvested and used to infect fresh target cells. The completion of a single round of viral replication can be detected by the means for detecting replication contained in the vector. In one embodiment, the completion of a single round of viral replication results in the production of luciferase. Serial concentrations of anti-viral agents can be added at either the transfection step or the infection step.
# Susceptibility to the anti-viral agent can be measured by comparing the replication of the vector in the presence and absence of the anti-viral agent. For example, susceptibility to the anti-viral agent can be measured by comparing the luciferase activity in the presence and absence of the anti-viral agent. Susceptible viruses would produce low levels of luciferase activity in the presence of anti-viral agents, whereas viruses with reduced susceptibility would produce higher levels of luciferase activity.
# The phenotypic assay was conducted using the PHENOSENSE™ (Virologic, South San Francisco, Calif.) HIV assay (Petropoulos et al., 2000, Antimicrob. Agents Chemother. 44:920-928; U.S. Pat. Nos. 5,837,464 and 6,242,187). Plasma samples were collected from HIV-1-infected patients. Repeat samples from the same patient were removed to prevent possible bias resulting from unique combinations of mutations.
# The genotype data was obtained by sequencing the protease of the HIV-1 present in each patient's sample and determining the sequence changes with respect to the sequence of the NL4-3 (GenBank Accession No. AF324493) HIV. The amino sequence for the NL4-3 protease is provided in SEQ. ID. No. 1 (FIG. 12A) and the nucleic acid sequence for the NL4-3 protease gene is provided in SEQ. ID. No. 2 (FIG. 12B).
# [1] = genotype group: 32, 46, 47, 54, n=4
# [2] = genotype group: 32, 47, 54, 84, n=5
# [3] = genotype group: 32, 47, 54, n=17
# [4] = genotype group: 46 (M46I or L), 54, n=16
# [5] = genotype group: 46, 54, 84, n=29
# [6] = genotype group: 47, 54, 84, n=3
# [7] = genotype group: 54 (I54L or M only), n=9
# [8] = genotype group: not containing any tested mutation, n=1096
# [9] = genotype group: protease mutation 32, n=26
# [10] = genotype group: wild-type (all primary positions), n=623
Compound,Median FC [1],Median FC [2],Median FC [3],"Median FC (genotype group: 32, 47, n=23)","Median FC (genotype group: 32, 84, n=3)",Median FC [4],Median FC [5],Median FC [6],"Median FC (genotype group: 47, 54, n=3)","Median FC (genotype group: 47, 84, n=4)","Median FC (genotype group: 50, n=42)",Median FC [7],"Median FC (genotype group: 54, 84, n=22)","Median FC (genotype group: 84, n=247)",Median FC [8],Median FC [9],Median FC [10],median FC in each group (each group carrying APV resistance mutations (Table 9)) [fold],"Median FC (genotype group: 32, 46, 47, 54, 84, n=6)","Median FC (genotype group: 47, n=8)"
"Cc1cccc(C)c1OCC(=O)N[C@@H](Cc1ccccc1)[C@@H](O)C[C@H](Cc1ccccc1)NC(=O)[C@H](C(C)C)N1CCCNC1=O [LPV, lopinavir]",208,227,146,7.5,124,138,30,20,88,28,54,160,93,7.1,2.1,12,0.6,–,–,–
"CC(C)CN(C[C@@H](O)[C@H](Cc1ccccc1)NC(=O)O[C@H]1CCOC1)S(=O)(=O)c1ccc(N)cc1 [APV, amprenavir]",130,130,40,12,51,84,47,24,42,12,20,22,67,11,1.6,9.5,0.6,≥ 9.5,130,26
